Tests used:
GSK3α [1] = biological target: T1, GSK3α (Homo sapiens, UniProt P49840); assay: GSK 3α enzyme inhibition (FRET), Method 1; type: biochemical; conditions: Table 4a1
How it was run: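 GSK3α was preincubated with test compound for 2 hr at RT, then a FRET peptide substrate and ATP were added for 1 hr. Protease development for 1 hr cleaved only non-phosphorylated peptide, and phosphorylation was read as the coumarin/fluorescein emission ratio. Concentrations given are those of the added solutions: enzyme 500 ng/mL, peptide 8 μM, ATP 40 μM.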

HRV16 in MRC5 cells = assay: HRV16 induced CPE in MRC5 cells; type: cell-based; conditions: Human rhinovirus sp., HRV-16
Method: (j) Assessment of HRV16 Induced CPE in MRC5 Cells
MRC-5 cells are infected with HRV16 at an MOI of 1n DMEM containing 5% FCS and 1.5 mM magnesium chloride, followed by incubation for 1 hr at 33° C. to promote adsorption. The supernatants are aspirated, and then fresh media added followed by incubation for 4 days. Where appropriate, cells are pre-incubated with compound or DMSO for 2 hr, and the compounds and DMSO added again after washout of the virus.
After washing, 1% SDS in distilled water (100 μL) is added to each well, and the plates are shaken lightly for 1-2 hr prior to reading the absorbance at 660 nm. The percentage inhibition for each well is calculated. The IC50 value is calculated from the concentration-response curve generated by the serial dilutions of the test compounds.

d-U937 cells = assay: Cell viability: MTT assay; type: cell-based, human; conditions: 1 μg/mL
How it was run: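 Differentiated U937 cells exposed to compound at 1 or 10 μg/mL, either 4 h in 5% FCS or 24 h in 10% FCS RPMI1640. MTT then added for 1 h, formazan dissolved in DMSO and read at 550 nm. Viability loss given as % versus 0.5% DMSO vehicle; apparent gains appear negative.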

GSK3α [2] = biological target: T1, GSK3α; assay: GSK 3α enzyme inhibition (FRET), Method 2; type: biochemical; conditions: Table 4a2, different laboratory
IL-8 release, PBMCs = assay: LPS-induced IL-8 release in PBMC cells; type: cell-based; conditions: Homo sapiens, LPS stimulated, read-out: IC50 Values for Inhibition of Cytokine Release, PBMCs, IL-8
How it was run: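 PBMCs from healthy donors pretreated with compound for 2 h, then stimulated with 1 ng/ml LPS (E. coli 0111:B4) for 24 h at 37 °C, 5% CO2. Supernatant IL-8 and TNFα measured by sandwich ELISA with fluorescence read-out.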

T1 sequence (P49840 whole entry): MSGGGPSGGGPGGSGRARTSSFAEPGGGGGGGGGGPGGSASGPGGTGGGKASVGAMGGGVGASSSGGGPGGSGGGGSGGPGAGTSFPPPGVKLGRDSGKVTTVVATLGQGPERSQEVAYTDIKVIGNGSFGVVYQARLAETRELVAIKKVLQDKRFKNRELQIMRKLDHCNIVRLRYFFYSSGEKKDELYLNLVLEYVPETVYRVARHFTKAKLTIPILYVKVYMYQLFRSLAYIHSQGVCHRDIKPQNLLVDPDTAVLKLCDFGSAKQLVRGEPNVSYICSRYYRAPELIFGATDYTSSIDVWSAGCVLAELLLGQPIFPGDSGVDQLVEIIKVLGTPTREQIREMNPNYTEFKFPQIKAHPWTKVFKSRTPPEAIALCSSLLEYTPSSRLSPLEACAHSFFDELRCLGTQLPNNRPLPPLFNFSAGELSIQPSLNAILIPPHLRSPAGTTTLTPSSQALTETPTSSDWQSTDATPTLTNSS

| Compound | IC50 (GSK3α [1]) [nM] | IC50 (GSK3α [2]) [nM] | IC50 (HRV16 in MRC5 cells) [nM] | Cell viability at time point in d-U937 cells, 4 h (d-U937 cells) | Cell viability at time point in d-U937 cells, 24 h (d-U937 cells) | IC50 (IL-8 release, PBMCs) [nM] |
| --- | --- | --- | --- | --- | --- | --- |
| COCCNC(=O)c1cc(Nc2nccc(Oc3ccc(NC(=O)Nc4cc(C(C)C)nn4-c4ccc(OC)cc4)c4ccccc34)n2)cc(OC)c1 [Example 11, 3-((4-((4-(3-(3-Isopropyl-1-(4-methoxyphenyl)-1H-pyrazol-5-yl)ureido)naphthalen-1-yl)oxy)pyrimidin-2-yl)amino)-5-methoxy-N-(2-methoxyethyl)benzamide] | > 14000 | 9950 | – | −ve (−ve and +ve indicate that the value is below and above respectively, the no significant effect threshold, defined as 30% inhibition at 1 μg/mL at the time point indicated) | −ve (−ve and +ve indicate that the value is below and above respectively, the no significant effect threshold, defined as 30% inhibition at 1 μg/mL at the time point indicated) | 3 |
| Cc1ccc(-n2nc(C(C)C)cc2NC(=O)Nc2ccc(Oc3ccnc(Nc4cc(C(=O)NCCN5CCOCC5)cc(C(F)(F)F)c4)n3)c3ccccc23)cc1 [Example 7, 3-((4-((4-(3-(3-isopropyl-1-(p-tolyl)-1H-pyrazol-5-yl)ureido)naphthalen-1-yl)oxy)pyrimidin-2-yl)amino)-N-(2-morpholinoethyl)-5-(trifluoromethyl)benzamide] | > 12600 | 12100 | – | −ve (−ve and +ve indicate that the value is below and above respectively, the no significant effect threshold, defined as 30% inhibition at 1 μg/mL at the time point indicated) | −ve (−ve and +ve indicate that the value is below and above respectively, the no significant effect threshold, defined as 30% inhibition at 1 μg/mL at the time point indicated) | 2.4 |
| COc1ccc(-n2nc(C(C)(C)C)cc2NC(=O)Nc2ccc(Oc3ccnc(Nc4cc(Br)cc(C(N)=O)c4)n3)c3ccccc23)cc1 [Example 42, 3-bromo-5-((4-((4-(3-(3-(tert-butyl)-1-(4-methoxyphenyl)-1H-pyrazol-5-yl)ureido)naphthalen-1-yl)oxy)pyrimidin-2-yl)amino)benzamide] | > 1390 | – | 2.2 | −ve (−ve and +ve indicate that the value is below and above respectively, the no significant effect threshold, defined as 30% inhibition at 1 μg/mL at the time point indicated) | −ve (−ve and +ve indicate that the value is below and above respectively, the no significant effect threshold, defined as 30% inhibition at 1 μg/mL at the time point indicated) | – |

The next lines start with results.

| IC50 (GSK3α [1]) [nM] | IC50 (GSK3α [2]) [nM] | Compound | IC50 (HRV16 in MRC5 cells) [nM] | Cell viability at time point in d-U937 cells, 4 h (d-U937 cells) | Cell viability at time point in d-U937 cells, 24 h (d-U937 cells) | IC50 (IL-8 release, PBMCs) [nM] |
| --- | --- | --- | --- | --- | --- | --- |
| 2990 | – | COc1ccc(-n2nc(C3(C)COC3)cc2NC(=O)Nc2ccc(Oc3ccnc(Nc4cccc(C(=O)NCCN5CCOCC5)c4)n3)c3ccccc23)cc1 [Example 23, 3-((4-((4-(3-(1-(4-methoxyphenyl)-3-(3-methyloxetan-3-yl)-1H-pyrazol-5-yl)ureido)naphthalen-1-yl)oxy)pyrimidin-2-yl)amino)-N-(2-morpholinoethyl)benzamide] | 22.3 | −ve (−ve and +ve indicate that the value is below and above respectively, the no significant effect threshold, defined as 30% inhibition at 1 μg/mL at the time point indicated) | −ve (−ve and +ve indicate that the value is below and above respectively, the no significant effect threshold, defined as 30% inhibition at 1 μg/mL at the time point indicated) | – |
| > 13000 | – | COc1cc(Nc2nccc(Oc3ccc(NC(=O)Nc4cc(C5(C)CC5)nn4-c4ccc(C)cc4)c4ccccc34)n2)cc(C(=O)NCCN2CCOCC2)c1 [Example 51, 3-methoxy-5-((4-((4-(3-(3-(1-methylcyclopropyl)-1-(p-tolyl)-1H-pyrazol-5-yl)ureido)naphthalen-1-yl)oxy)pyrimidin-2-yl)amino)-N-(2-morpholinoethyl)benzamide] | 1.9 | −ve (−ve and +ve indicate that the value is below and above respectively, the no significant effect threshold, defined as 30% inhibition at 1 μg/mL at the time point indicated) | −ve (−ve and +ve indicate that the value is below and above respectively, the no significant effect threshold, defined as 30% inhibition at 1 μg/mL at the time point indicated) | – |
